Key:
Format in all cases: in vivo
Setaria faberi (SETFA) [1] = test: Biological Example 1 glasshouse screen, pre-emergence herbicidal activity; conditions: application rate 250 g/ha, evaluated after 13 days
Protocol: (§1) Seeds of a variety of test species were sown in standard soil in pots. After cultivation for one day (pre-emergence) or after 8 days cultivation (post-emergence) under controlled conditions in a glasshouse (at 24/16°C., day/night; 14 hours light; 65% humidity), the plants were sprayed with an aqueous spray solution derived from the formulation of the “technical”(i.e. unformulated) active ingredient in acetone/water (50:50) solution containing 0.5% Tween 20 (polyoxyethylene sorbitan monolaurate, CAS Registry Number 9005-64-5). The test plants were then grown in a glasshouse under controlled conditions in a glasshouse (at 24/16°C., day/night; 14 hours light; 65% humidity) and watered twice daily. After 13 days for pre- or post-emergence, the test was evaluated visually, and an assessed percentage phytotoxicity score given for each herbicidal application on each plant/weed species (with 100%=total damage to plant; 0%=no damage to plant).
(§2) Test plants: Alopecurus myosuroides (ALOMY), Setaria faberi (SETFA), Echinochloa crus-galli (ECHCG), Solanum nigrum (SOLNI), Amaranthus retroflexus (AMARE) and Ipomoea hederacea (IPOHE). ALOMY, SETFA and ECHCG are grassy monocotyledonous weeds. SOLNI, AMARE and IPOHE are dicotyledonous (broadleaved) weeds.

[2] = test system: Ipomoea hederacea (IPOHE); test: as above; conditions: application rate 250 g/ha, evaluated after 13 days
Protocol: as §1, §2

[3] = test system: Amaranthus retroflexus (AMARE); test: as above; conditions: application rate 250 g/ha, evaluated after 13 days
Protocol: as §1, §2

Solanum nigrum (SOLNI) [4] = test: as above; conditions: application rate 250 g/ha, evaluated after 13 days
Protocol: as §1, §2

Setaria faberi (SETFA) [5] = test: Biological Example 1 glasshouse screen, post-emergence herbicidal activity; conditions: application rate 250 g/ha, evaluated after 13 days
Protocol: as §1, §2

[6] = test system: Ipomoea hederacea (IPOHE); test: as above; conditions: application rate 250 g/ha, evaluated after 13 days
Protocol: as §1, §2

[7] = test system: Amaranthus retroflexus (AMARE); test: as above; conditions: application rate 250 g/ha, evaluated after 13 days
Protocol: as §1, §2

Solanum nigrum (SOLNI) [8] = test: as above; conditions: application rate 250 g/ha, evaluated after 13 days
Protocol: as §1, §2

[9] = test system: Echinochloa crus-galli (ECHCG); test: as above; conditions: 312 h, application rate 250 g/ha, evaluated after 13 days, read-out: ECHCG percentage phytotoxicity
Summary of the method: (§3)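 Phytotoxicity was scored visually as % damage (100 = total, 0 = none) 13 days after spraying. Spray was acetone/water (50:50) with 0.5% Tween 20, applied to soil-sown pots 1 day (pre-emergence) or 8 days (post-emergence) after sowing. Glasshouse at 24/16°C, 14 h light, 65% humidity.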

[10] = test system: Alopecurus myosuroides (ALOMY); test: as above; conditions: 312 h, application rate 250 g/ha, evaluated after 13 days, read-out: ALOMY percentage phytotoxicity
Summary of the method: as §3

Setaria faberi (SETFA) [11] = test: Biological Example 2 post-emergence herbicidal activity (comparative data)
Summary of the method: (§4)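 Post-emergence spray after 8 days' glasshouse growth (24/16°C day/night, 14 h light, 65% humidity), using technical active ingredient in acetone/water (50:50) with 0.5% Tween 20. Visual phytotoxicity scored 13 days later, 0% = no damage to 100% = total damage.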

[12] = test system: Echinochloa crus-galli (ECHCG); test: as above; conditions: 312 h, read-out: ECHCG percentage phytotoxicity; for pest or weed control at 15.625 g/ha: 15.625 g/ha application rate; for pest or weed control at 62.5 g/ha: 62.5 g/ha application rate
Summary of the method: as §4

[13] = test system: Alopecurus myosuroides (ALOMY); test: as above; conditions: 312 h, read-out: ALOMY percentage phytotoxicity; for pest or weed control at 15.625 g/ha: 15.625 g/ha application rate; for pest or weed control at 62.5 g/ha: 62.5 g/ha application rate
Summary of the method: as §4

[14] = test system: Echinochloa crus-galli (ECHCG); test: Biological Example 1 glasshouse screen, pre-emergence herbicidal activity; conditions: 312 h, application rate 250 g/ha, evaluated after 13 days, read-out: ECHCG percentage phytotoxicity
Summary of the method: as §3

[15] = test system: Alopecurus myosuroides (ALOMY); test: as above; conditions: 312 h, application rate 250 g/ha, evaluated after 13 days, read-out: ALOMY percentage phytotoxicity
Summary of the method: as §3

[16] = test system: Avena fatua, wild oats (AVEFA); test: Biological Example 3 glasshouse screen, post-emergence herbicidal activity; conditions: 360 h, 15 DAA, no safener, read-out: AVEFA percentage phytotoxicity
Summary of the method: (§5)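 Plants grown 12 days under glass (24/18°C. or 20/16°C. day/night, 16 h light, 65% humidity) were sprayed post-emergence with compound in acetone plus IF50, with 0.2% v/v X-77 adjuvant added. Percentage phytotoxicity was scored visually at 15 DAA (0% = no damage, 100% = total damage). No safener was used.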

[17] = test system: Lolium perenne, perennial ryegrass (LOLPE); test: as above; conditions: 360 h, 15 DAA, no safener, read-out: LOLPE percentage phytotoxicity
Summary of the method: as §5

[18] = test system: Echinochloa crus galli, barnyardgrass (ECHCG); test: as above; conditions: 360 h, 15 DAA, no safener, read-out: ECHCG percentage phytotoxicity
Summary of the method: as §5

[19] = test system: Alopecurus myosuroides, blackgrass (ALOMY); test: as above; conditions: 360 h, 15 DAA, no safener, read-out: ALOMY percentage phytotoxicity
Summary of the method: as §5

[20] = test system: Triticum aestivum, wheat (TRZAW); test: Biological Example 3 glasshouse screen, post-emergence, phytotoxicity on wheat; conditions: 360 h, 15 DAA, no safener, read-out: TRZAW percentage phytotoxicity
Summary of the method: as §5

Compound | SEFTA percentage phytotoxicity (Setaria faberi (SETFA) [1]) | IPOHE percentage phytotoxicity [2] | AMARE percentage phytotoxicity [3] | SOLNI percentage phytotoxicity (Solanum nigrum (SOLNI) [4]) | SEFTA percentage phytotoxicity (Setaria faberi (SETFA) [5]) | IPOHE percentage phytotoxicity [6] | AMARE percentage phytotoxicity [7] | SOLNI percentage phytotoxicity (Solanum nigrum (SOLNI) [8]) | pest or weed control at 250 g/ha [9] | pest or weed control at 250 g/ha [10] | SETFA percentage phytotoxicity (Setaria faberi (SETFA) [11]; 15.625 g/ha application rate) | SETFA percentage phytotoxicity (Setaria faberi (SETFA) [11]; 62.5 g/ha application rate) | pest or weed control at 15.625 g/ha [12] | pest or weed control at 62.5 g/ha [12] | pest or weed control at 15.625 g/ha [13] | pest or weed control at 62.5 g/ha [13] | pest or weed control at 250 g/ha [14] | pest or weed control at 250 g/ha [15] | further results
CC#Cc1cc(C)c(C2C(=O)C3C(C2=O)[C@H]2CC[C@@H]3O2)c(C)c1 (mixture of isomers) [Compound A-18, (1RS,2SR,6RS,7SR)-4-(2,6-dimethyl-4-prop-1-ynylphenyl)-10-oxatricyclo[5.2.1.0^2,6]decane-3,5-dione] | 100% | 80% | 100% | 80% | 100% | 80% | 30% | 80% | 100% | 100% | 70% | 90% | 100% | 100% | 90% | 100% | 100% | 100% | pest or weed control at 8 g/ha ([16]; application rate 8 g/ha): 30%; pest or weed control at 8 g/ha ([17]; application rate 8 g/ha): 80%; pest or weed control at 8 g/ha ([18]; application rate 8 g/ha): 80%; pest or weed control at 8 g/ha ([19]; application rate 8 g/ha): 70%; pest or weed control at 8 g/ha ([20]; application rate 8 g/ha): 40%
CC#Cc1cc(C)c(C2=C(O)CCC2=O)c(C)c1 [Compound A-1, 2-(2,6-Dimethyl-4-prop-1-ynylphenyl)cyclopentane-1,3-dione] | 80% | 0% | 0% | 0% | 70% | 30% | 0% | 10% | 100% | 90% | 40% | 60% | 70% | 100% | 20% | 80% | 100% | 100% | pest or weed control at 125 g/ha ([16]; application rate 125 g/ha): 0%; pest or weed control at 125 g/ha ([17]; application rate 125 g/ha): 50%; pest or weed control at 125 g/ha ([18]; application rate 125 g/ha): 80%; pest or weed control at 125 g/ha ([19]; application rate 125 g/ha): 70%; pest or weed control at 125 g/ha ([20]; application rate 125 g/ha): 40%
